Tested on: not given
Experiment: not given
Conditions: phase II clinical trial, allergic rhinitis; cited from earlier work

In the case of `Oc1cccc(Nc2ncc(F)c(Nc3cccc(O)c3)n2)c1` [Example R112], the efficacy versus placebo is listed as “lack of efficacy”.

Biological target: T1, recombinant human GST-SYK (Homo sapiens, UniProt P43405)
T1 construct: purchased Carna Biosciences 08-176
Experiment: Homogeneous Time-Resolved Fluorescence (HTRF) assay for the recombinant human Syk enzyme
Assay type: biochemical
Conditions: HTRF assay, recombinant human GST-SYK; IC50 given as class symbols; read-out: rhSYK Activity
In short: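 Phosphotyrosine product from a biotinylated Syk substrate peptide was detected by HTRF (europium antibody/SA-APC, read after 30 min) following a 45-minute room-temperature reaction at 25 μM ATP, with […] preincubated 10 minutes with inhibitor.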

`Cc1cc(Nc2nccc(C(F)(F)F)n2)cc(-c2ccnc(N(C)CCC3OCCO3)c2)c1` [Example 15.57, N-[3-(2-{[2-(1,3-dioxolan-2-yl)ethyl](methyl)amino}pyridin-4-yl)-5-methylphenyl]-4-(trifluoromethyl)pyrimidin-2-amine] and `Cc1cc(Nc2nccc(C(F)(F)F)n2)cc(-c2ccc(N(C)CCC3OCCO3)nc2)c1` [Example 7.41, N-[3-(6-{[2-(1,3-dioxolan-2-yl)ethyl](methyl)amino}pyridin-3-yl)-5-methylphenyl]-4-(trifluoromethyl)pyrimidin-2-amine] fall in the same range of IC50: 100 to 1000 nM for the first, 100 to 1000 nM for the second.

First: Cc1cc(Nc2nccc(C(F)(F)F)n2)cc(-c2ccc(NC(C)(CC(F)(F)F)C(=O)O)nc2)c1 (stereo not shown) [Example 18.5, 4,4,4-Trifluoro-N-[5-(3-methyl-5-{[4-(trifluoromethyl)pyrimidin-2-yl]amino}phenyl)pyridin-2-yl]isovaline]
Second: Cc1cc(Nc2nccc(C(F)(F)F)n2)cc(-c2ccc(NC(C)(C#N)CC(F)(F)F)nc2)c1 (stereo not shown) [Example 7.117, 4,4,4-trifluoro-2-methyl-2-{[5-(3-methyl-5-{[4-(trifluoromethyl)pyrimidin-2-yl]amino}phenyl)pyridin-2-yl]amino}butanenitrile]
The IC50 of the first is lower: < 100 nM for the first, 100 to 1000 nM for the second.

First: Cc1cc(Nc2nccc(C(F)(F)F)n2)cc(-c2ccc(C(=O)NCc3ncc[nH]3)nc2)c1 [Example 16.53, N-(1H-imidazol-2-ylmethyl)-5-(3-methyl-5-{[4-(trifluoromethyl)pyrimidin-2-yl]amino}phenyl)pyridine-2-carboxamide]
Second: Cc1cc(Nc2nccc(C(F)(F)F)n2)cc(-c2ccc(C(=O)NCCS(N)(=O)=O)nc2)c1 [Example 16.50, 5-(3-methyl-5-{[4-(trifluoromethyl)pyrimidin-2-yl]amino}phenyl)-N-(2-sulfamoylethyl)pyridine-2-carboxamide]
The IC50 of the first is higher: 100 to 1000 nM for the first, < 100 nM for the second.

`Nc1cc(Nc2nccc(C(F)(F)F)n2)cc(-c2ccncc2)c1` [Example 6.4, 5-pyridin-4-yl-N-[4-(trifluoromethyl)pyrimidin-2-yl]benzene-1,3-diamine] and `Cc1cc(Nc2nccc(C(F)(F)F)n2)cc(-c2ccnc(NCCN)c2)c1` [Example 15.41, N-[4-(3-methyl-5-{[4-(trifluoromethyl)pyrimidin-2-yl]amino}phenyl)pyridin-2-yl]ethane-1,2-diamine] cannot be ordered by IC50: < 100 nM for the first, < 100 nM for the second.

First: Cn1c(-c2cccc(Nc3nccc(C(F)(F)F)n3)c2)cccc1=O [Example 5.3, 1-methyl-6-(3-{[4-(trifluoromethyl)pyrimidin-2-yl]amino}phenyl)pyridin-2(1H)-one]
Second: O=C(O)CCc1ccc(-c2cccc(Nc3nccc(C(F)(F)F)n3)c2)cn1 [Example 2.82, 3-[5-(3-{[4-(trifluoromethyl)pyrimidin-2-yl]amino}phenyl)pyridin-2-yl]propanoic acid]
The IC50 of the first is higher: 100 to 1000 nM for the first, < 100 nM for the second.

`O=C1NCCC1Nc1ccc(-c2cccc(Nc3nccc(C(F)(F)F)n3)c2)cn1` (stereo not shown) [Example 7.124, 3-{[5-(3-{[4-(trifluoromethyl)pyrimidin-2-yl]amino}phenyl)pyridin-2-yl]amino}pyrrolidin-2-one] and `Cc1cc(Nc2nccc(C(F)(F)F)n2)cc(-c2ccc(N3CCNC(=O)C3)nc2)c1` [Example 7.67, 4-[5-(3-methyl-5-{[4-(trifluoromethyl)pyrimidin-2-yl]amino}phenyl)pyridin-2-yl]piperazin-2-one] cannot be ordered by IC50: < 100 nM for the first, < 100 nM for the second.

`COc1ccnc(Nc2cc(C)cc(-c3ccnc(CCC(=O)O)c3)c2)n1` [Example 2.131, 3-(4-{3-[(4-methoxypyrimidin-2-yl)amino]-5-methylphenyl}pyridin-2-yl)propanoic acid] and `Cc1cc(Nc2nccc(C3CC3)n2)cc(-c2ccc(CCC(=O)O)cn2)c1` [Example 2.40, 3-(6-{3-[(4-cyclopropylpyrimidin-2-yl)amino]-5-methylphenyl}pyridin-3-yl)propanoic acid] cannot be ordered by IC50: < 100 nM for the first, < 100 nM for the second.

`Cc1cc(Nc2nccc(C(F)(F)F)n2)cc(-c2ccnc(NC(C)(C)CO)c2)c1` [Example 15.51, 2-methyl-2-{[4-(3-methyl-5-{[4-(trifluoromethyl)pyrimidin-2-yl]amino}phenyl)pyridin-2-yl]amino}propan-1-ol] and `CC(=O)C(C)(O)c1cncc(-c2cc(C)cc(Nc3nccc(C(F)(F)F)n3)c2)c1` (stereo not shown) [Example 9.72, 3-hydroxy-3-[5-(3-methyl-5-{[4-(trifluoromethyl)pyrimidin-2-yl]amino}phenyl)pyridin-3-yl]butan-2-one] cannot be ordered by IC50: < 100 nM for the first, < 100 nM for the second.

First: CC1(C(=O)O)CCC(O)(c2ccc(-c3cc(Nc4nccc(C(F)(F)F)n4)cc(C(F)F)c3)cn2)CC1 (stereo not drawn) [Example 9.12, cis-4-{5-[3-(difluoromethyl)-5-{[4-(trifluoromethyl)pyrimidin-2-yl]amino}phenyl]pyridin-2-yl}-4-hydroxy-1-methylcyclohexanecarboxylic acid]
Second: Cc1cc(Nc2nccc(C(F)(F)F)n2)cc(-c2ccc(C34CCC(C(=O)O3)C(C)(C)C4)nc2)c1 (single isomer, unassigned) [Example 9.10, (1S,4R or 1R,4S) 5,5-dimethyl-1-[5-(3-methyl-5-{[4-(trifluoromethyl)pyrimidin-2-yl]amino}phenyl)pyridin-2-yl]-2-oxabicyclo[2.2.2]octan-3-one]
The IC50 of the first is lower: < 100 nM for the first, 100 to 1000 nM for the second. The first is the more potent here.

First: CC(=O)Nc1cc(Nc2nccc(C(F)(F)F)n2)cc(-c2ccc(N3CC[C@H]3C(=O)O)nc2)c1 [Example 7.2, (2S)-1-{5-[3-(acetylamino)-5-{[4-(trifluoromethyl)pyrimidin-2-yl]amino}phenyl]pyridin-2-yl}azetidine-2-carboxylic acid]
Second: Cc1cc(Nc2nccc(C(F)(F)F)n2)cc(-c2ccc(N3CCCC(F)(F)C3)nc2)c1 [Example 7.53, N-{3-[6-(3,3-difluoropiperidin-1-yl)pyridin-3-yl]-5-methylphenyl}-4-(trifluoromethyl)pyrimidin-2-amine]
The IC50 of the first is lower: < 100 nM for the first, 100 to 1000 nM for the second. The first is the more potent here.

`Cc1cc(Nc2nccc(C(F)(F)F)n2)cc(-c2ccc(NCCc3cnccn3)nc2)c1` [Example 7.18, N-(3-methyl-5-{6-[(2-pyrazin-2-ylethyl)amino]pyridin-3-yl}phenyl)-4-(trifluoromethyl)pyrimidin-2-amine] and `Cc1cc(Nc2nccc(C(F)(F)F)n2)cc(-c2ccc(N[C@H](Cc3c[nH]cn3)C(=O)O)nc2)c1` [Example 7.73, N-[5-(3-methyl-5-{[4-(trifluoromethyl)pyrimidin-2-yl]amino}phenyl)pyridin-2-yl]-D-histidine] cannot be ordered by IC50: < 100 nM for the first, < 100 nM for the second.

First: Cc1cc(Nc2nccc(C(F)(F)F)n2)cc(-c2ccc(CNC(N)=O)nc2)c1 [Example 17.2, 1-{[5-(3-methyl-5-{[4-(trifluoromethyl)pyrimidin-2-yl]amino}phenyl)pyridin-2-yl]methyl}urea]
Second: CC(=O)N1CCCN(c2cc(-c3cc(C)cc(Nc4nccc(C(F)(F)F)n4)c3)ccn2)CC1 [Example 15.75, N-{3-[2-(4-acetyl-1,4-diazepan-1-yl)pyridin-4-yl]-5-methylphenyl}-4-(trifluoromethyl)pyrimidin-2-amine]
The IC50 of the first is lower: < 100 nM for the first, 100 to 1000 nM for the second. The first is the more potent here.

`Cc1cc(Nc2nccc(C(C)C)n2)cc(-c2ccc(N[C@H]3CC[C@H](C(=O)O)CC3)nc2)c1` [Example 2.108, trans-4-{[5-(3-methyl-5-{[4-(1-methylethyl)pyrimidin-2-yl]amino}phenyl)pyridin-2-yl]amino}cyclohexanecarboxylic acid] and `Cc1cc(Nc2nccc(C)n2)cc(-c2ccc(N[C@H]3CC[C@H](C(=O)O)CC3)nc2)c1` [Example 2.106, trans-4-[(5-{3-methyl-5-[(4-methylpyrimidin-2-yl)amino]phenyl}pyridin-2-yl)amino]cyclohexanecarboxylic acid] cannot be ordered by IC50: < 100 nM for the first, < 100 nM for the second.

First: COc1nc(Nc2cc(C)cc(-c3ccc(N[C@H]4CC[C@H](C(=O)O)CC4)nc3)c2)ncc1Cl [Example 2.118, trans-4-[(5-{3-[(5-chloro-4-methoxypyrimidin-2-yl)amino]-5-methylphenyl}pyridin-2-yl)amino]cyclohexanecarboxylic acid]
Second: Cc1cc(Nc2nccc(C)n2)cc(-c2ccc(C(C)(O)[C@H]3CC[C@H](C(=O)O)CC3)nc2)c1 (single isomer, unassigned) [Example 9.26, trans-4-[(1R or 1S)-1-hydroxy-1-(5-{3-methyl-5-[(4-methylpyrimidin-2-yl)amino]phenyl}pyridin-2-yl)ethyl]cyclohexanecarboxylic acid]
The IC50 of the first is higher: 100 to 1000 nM for the first, < 100 nM for the second. The second is the more potent here.

Tested on: PGD2
Experiment: not given
Conditions: dosed intranasally, phase I/II study, allergic rhinitis; cited from earlier work

In the case of `Oc1cccc(Nc2ncc(F)c(Nc3cccc(O)c3)n2)c1` [Example R112], the “change in PGD2” value is listed as “statistically significant decrease”.

For `Oc1cccc(Nc2ncc(F)c(Nc3cccc(O)c3)n2)c1` [Example R112], the clinical safety is given as “safe across a range of indicators”.
